Test [1] can be described thus: Treatment of cardiovascular diseases. Type of test: in vivo, human. The procedure:
The subjects were treated with sodium carbonate with about at least 2 g daily, with improvement occurring within short time, within about 1-2 weeks.

For test [2], the system named is tumor tissue. Put plainly: Treatment of cancer under medical supervision.
Experimental: The subjects were treated under medical supervision with antibiotics and vitamins, trace elements, and/or natural medicines individually and in combination.
Test [3] can be described thus: Treatment of acidosis, test series with and without Na.
Experimental: In order to restore the body rapidly and successfully, test series were performed with and without Na.
Test series 1: The subjects were treated with vitamins, trace elements, and/or natural medicines individually and in combination.
Test [4] can be described thus: Treatment of obesity, cellulitis, cellulite, acne.
Experimental: Test series 1: The subjects were treated with vitamins, trace elements (ZK), and/or natural medicines individually and in combination.
Alkaline saturation of the body, at plasma pH of a maximum of 8.5.
Test [5] in a line: Treatment of skin diseases (psoriasis, neurodermatitis). Type of test: in vivo, human. The protocol:
The term skin diseases describes in particular psoriasis and neurodermatitis. Basically, in the case of psoriasis patients the inventive dosing schedule is very welcome, because it counterbalances the negative effects of very strong medications that are administered in such cases; these improve by 65-80% with the inventive dosing schedule.
The subjects were treated with sodium carbonate with about 2 g+daily, after which the normal effect is achieved as described above; 1-2 weeks.

The mark [6] stands for this setting: test series 2, at least 2 g daily.

Data on one molecule can be found in US20160095894A1, “DIETETIC MULTI-COMPONENT SYSTEM” (priority 2011, published 2016).

Consider `O=C([O-])[O-].[Na+].[Na+]` [sodium carbonate], for which the “time until improvement occurred” value in test [1] (about at least 2 g daily) and in test [3] (setting [6]) was 1-2 weeks in each case. The “uptake of mineral substances and natural medicines” value in test [1] (cardiovascular diseases) was “improved considerably”; in test [2] (used internally and externally), “improved considerably”; in test [3] (test series 2) it was “improved considerably and obviously”; in test [4] (test series 2), “improved considerably”. Besides, the rehabilitation in test [1] (cardiovascular diseases, followed by vitamins and trace elements) came to 100%; in test [4] (obesity, cellulitis, cellulite, acne), 95%. Besides, the “time until tissue reacted perceptibly” value in test [2] (cancer, at least 2 g daily) is on record as 1-2 weeks. For the same molecule, the swelling reduced result in test [2] (cancer, statements made by the subjects) was “about 80%”. Moreover, the “reduction in tumor size” value in test [2] (cancer, to date) is recorded as “about 30%”. In test [3] (test series 2, followed by vitamins and trace elements), this molecule registered a successful of 100%. Further, in test [4] (followed by high-dose vitamins and acids for several weeks, no yo-yo effect over about 2 years), the weight change entry is “extensive weight reduction”. Further, in test [4] (setting [6]), the “time until tissue responded perceptibly” value is given as 1-2 weeks. Also, the “time until the normal effect is achieved” value in test [5] (about 2 g+ daily) was 1-2 weeks. Moreover, in test [5] (psoriasis or neurodermatitis patients), the considerable improvement result is on record as “about 80%”.
